Results as given in ChEMBL document CHEMBL1201862, “PubChem BioAssay data set” (2004).
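Interpolation was linear, between the two tested concentrations surrounding the appropriate level; five concentrations were tested over 48 hours in 96-well plates. At the GI50, growth is halved.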 Active and inactive are the calls of the source. No stated cut-off is given here; in the data, active = GI50 up to about 1.1 µM and inactive = higher.

Legend:
Assay in all cases: DTP human tumour cell line panel, 48 h
OVCAR-8 = tested on: OVCAR-8
ACHN = tested on: ACHN
M14 = tested on: M14
OVCAR-5 = tested on: OVCAR-5
NCI-H460 = tested on: NCI-H460
DU-145 = tested on: DU-145
SF-268 = tested on: SF-268
MOLT-4 = tested on: MOLT-4
OVCAR-4 = tested on: OVCAR-4
HCC 2998 = tested on: HCC 2998
RPMI-8226 = tested on: RPMI-8226
MCF7 = tested on: MCF7
HCT-15 = tested on: HCT-15
LOX IMVI = tested on: LOX IMVI
U-251 = tested on: U-251
SK-OV-3 = tested on: SK-OV-3
HOP-62 = tested on: HOP-62
K562 = tested on: K562
NCI-H522 = tested on: NCI-H522
A498 = tested on: A498

Row | SMILES | GI50 (OVCAR-8) | GI50 (ACHN) | GI50 (M14) | GI50 (OVCAR-5) | GI50 (NCI-H460) | GI50 (DU-145) | GI50 (SF-268) | GI50 (MOLT-4) | GI50 (OVCAR-4) | GI50 (HCC 2998) | GI50 (RPMI-8226) | GI50 (MCF7) | GI50 (HCT-15) [µM] | GI50 (LOX IMVI) | GI50 (U-251) | GI50 (SK-OV-3) | GI50 (HOP-62) | GI50 (K562) | GI50 (NCI-H522) | GI50 (A498)
1 | O=[N+]([O-])c1ccc2c(c1)=[N+]([O-])C1(CCCCC1)[N+]=2[O-] | 15.8 µM (inactive) | 19.6 µM (inactive) | 15.6 µM (inactive) | 20.5 µM (inactive) | 18.8 µM (inactive) | 18.9 µM (inactive) | 26.9 µM (inactive) | 6.15 µM (inactive) | 11.6 µM (inactive) | 18.3 µM (inactive) | 10.2 µM (inactive) | 16.1 µM (inactive) | 18.2 | 19.9 µM (inactive) | 17.2 µM (inactive) | 22.5 µM (inactive) | 17.1 µM (inactive) | 15.8 µM (inactive) | – | –
2 | CCOc1cc2c(c(OCC)c1O)CC[C@@H]1[C@@H]2CC[C@]2(C)[C@@H](O)CC[C@@H]12 | 7.59 µM (inactive) | 1.11 µM (active) | 3.05 µM (inactive) | 10.7 µM (inactive) | – | – | 4.79 µM (inactive) | 0.681 µM (active) | 51.8 µM (inactive) | – | 2.74 µM (inactive) | 0.505 µM (active) | 0.289 | 2.23 µM (inactive) | – | 4.75 µM (inactive) | 1.32 µM (inactive) | 0.329 µM (active) | 0.61 µM (active) | 5.21 µM (inactive)
3 | Cc1cc(Br)cc(C)c1NC(=O)C(=O)C1C(=O)C(CC2C(=O)c3ccccc3C2=O)C(=O)CC1(C)C (centres undefined) | > 100 µM (inactive) | > 100 µM (inactive) | > 100 µM (inactive) | > 100 µM (inactive) | > 100 µM (inactive) | > 100 µM (inactive) | > 100 µM (inactive) | 18.1 µM (inactive) | 39.5 µM (inactive) | > 100 µM (inactive) | – | 18.6 µM (inactive) | 63.5 | > 100 µM (inactive) | > 100 µM (inactive) | > 100 µM (inactive) | > 100 µM (inactive) | – | 44.5 µM (inactive) | –
4 | Cc1cccc2nc(-c3ccccc3)cc(=O)n12 | 88.3 µM (inactive) | 43.1 µM (inactive) | > 100 µM (inactive) | > 100 µM (inactive) | > 100 µM (inactive) | > 100 µM (inactive) | > 100 µM (inactive) | 63.5 µM (inactive) | > 100 µM (inactive) | > 100 µM (inactive) | > 100 µM (inactive) | 50.2 µM (inactive) | 94 | – | > 100 µM (inactive) | 82.8 µM (inactive) | > 100 µM (inactive) | > 100 µM (inactive) | 58.9 µM (inactive) | –
